Experimental data taken from patent US6013665A, “Method for enhancing the absorption and transport of lipid soluble compounds using structured glycerides” (Abbott Laboratories, priority 1997, dated 2000).
Where two headings read alike, the source gives them in different places. One block for each molecule: values may come before it.

Assays:
[1] = cited from earlier work
[2] = design: species or system Male Sprague Dawley rats; details: rat, in vivo
Experimental: (§1) The results set forth in FIGS. 1-4 are statistically significant at p<0.01 (see *). A two way analysis of variance model was employed for each treatment, lipid type and their interaction effects in the model were used to compare the area under each curve. Models were extended to included contrast statements comparing the physical mix and the structured triglyceride within each treatment group.
(§2) This experiment was conducted to determine if a structured glyceride consisting of a co-randomized MCT/fish oil would enhance the absorption of lipophilic compounds such as vitamin E (tocopherol) and retinol (vitamin A) using a lymph fistula rat model based upon a procedure described by Fujimoto et al., "Effect of Ischemia-Reperfusion on Lipid Digestion and Absorption in Rat Intestine", Am. J. Physiol., 260: G595-G602 (1991), the entire teaching of which is hereby incorporated by reference. This model was designed to represent fat absorption mode of the healthy intestinal tract (i.e., not compromised through disease or ischemic event). The lymph fistula rat model is extremely accurate in measuring and quantitating lipid absorption.
(§3) The physical mix (Part A)and structured triglyceride component (Part B) of Example 1 were used. […].
(§4) Male Sprague Dawley rats weighing between 280 and 330 grams were all fed a normal Purina Rat Chow for one week. Rats were fasted overnight prior to surgery and under anesthesia, a laparotomy was performed, the intestinal lymph duct was cannulated according to the procedure of Tso et al., "The Absorption of Lipid and Lipoprotein Synthesis", Lipid Research Methodology, Chapter 5: 191-216 (1984) Alan R. Liss, Inc., N.Y., N.Y, the entire teaching of which is hereby incorportated by reference. […] A silicon infusion tube (1.6 mm OD) was placed in the stomach for infusion of saline, structured lipid/lipophilic compound or emulsified physical mix/lipophilic compound. The fundic incision was closed by a purse string suture. The animals were allowed to recover for 24 hours before experimental oil/lipophilic compound infusion began.
(§5) Animals were randomly assigned to two groups in this non-injury model. […].
(§6) Lymph was collected in pre-cooled tubes beginning hourly for eight (8) hours after initiation of lipid infusion. At the end of the lipid infusion, the animals were sacrificed by exsanguination.
(§7) Radioactivity was measured in an aqueous miscible scintillant (Poly-Fluor, Packard, Downers Grove, Ill.). Samples were counted for 10 minutes in a liquid scintillation spectrophotometer (LKB Model 1209, Pharmacia, Inc.). Samples were corrected for quenching by reference to a series of ^14 C and ^3 H standards that were progressively quenched.
Lymph lipids were extracted and the methyl ester derivatives of the fatty acids were analyzed using a Hewlett Packard Gas Chromatograph, Model 5890A with a capillary column packed with 10% SP-2330 on 80/100 Supelcoport (Supelco, Inc., Bellefonte, Pa.).

[3] = rat, in vivo
Experimental: as §1, §2, §3, §4, §5, §6, §7
This experiment was conducted in a manner similar to Example 2 except that the ischemic/reperfusion injury model was used. This model was used to simulate the lipid malabsorption conditions associated with diseases such as Short Bowel Syndrome, Crohn's disease and the like. Animals were divided into two groups and given the physical mix (Group A) or the structured triglyceride component (Group B) of Example 2.

[4] = cited from earlier work; remark: listed apart in the source
[5] = in vivo; cited from earlier work
[6] = rat, in vivo; cited from earlier work
[7] = in vivo; cited from earlier work; remark: listed apart in the source

Molecule: CCCCCCCC/C=C\CCCCCCCC(=O)O [oleic acid]
absorption into the lymphatic system from an emulsion ([1]; rats with bile diversion, emulsion): well absorbed into the lymphatic system

amount of retinol to the lymphatic circulation, structured triglyceride component vs physical mixture, end of study (FIG. 3) [3]: more than twice the amount | lymphatic retinol absorption, structured triglyceride component vs physical mixture, initial 3 hour period (FIG. 3) [3]: about equal
Molecule: CC1=C(/C=C/C(C)=C/C=C/C(C)=C/CO)C(C)(C)CCC1 [retinol]
lymph tocopherol and retinol output with structured glyceride component versus physical mix [2]: increased rapidly and maintained a significantly higher output | lymphatic retinol absorption, structured triglyceride component vs physical mix (FIG. 1) [2]: increased the lymphatic absorption of retinol over the entire 8 hour study period | retinol absorption, structured triglyceride component over physical mix, after about 3 hours (FIG. 3) [3]: enhancement in the retinol absorption over the physical mix

Molecule: CCCCCCCC/C=C\CCCCCCCC(=O)OCC(COC(=O)CCCCCCC/C=C\CCCCCCCC)OC(=O)CCCCCCC/C=C\CCCCCCCC [triolein]
amount of lipid transported to the lymph ([4]; lymph fistula rat, same amount of fatty acid infused as triolein or phosphatidylcholine with vitamin E): similar

Molecule: phosphatidylcholine
amount of lipid transported to the lymph ([4]; rat, in vivo): similar

higher lymph output of the lipophilic compound with structured triglyceride compared to the corresponding physical mix [2]: ≥ 30% | higher lymph output of the lipophilic compound with structured triglyceride component compared to the corresponding physical mix [3]: ≥ 30% | tocopherol absorption, structured triglyceride component vs physical mix, initial 2 hour period (FIG. 4) [3]: essentially equal
Molecule: α-tocopherol
lymph tocopherol and retinol output with structured glyceride component versus physical mix [2]: increased rapidly and maintained a significantly higher output | lymphatic tocopherol absorption, structured glyceride component vs physical mix (FIG. 2) [2]: enhances the lymphatic absorption of tocopherol over the entire 8 hour study period | lymphatic tocopherol absorption, structured triglyceride vs physical mix, after about 2 hours (FIG. 4) [3]: significantly enhanced level of lymphatic tocopherol absorption | α-tocopherol absorption by rat small intestine with polyunsaturated fatty acids in bile salt micelles [5]: depress α-tocopherol absorption | gastrointestinal absorption of lecithin-dispersed aqueous preparations of vitamin E with MCT [6]: significantly enhanced the absorption | lymphatic absorption of vitamin E from lecithin-dispersed aqueous preparations [6]: increase the lymphatic absorption of vitamin E | transport of vitamin E into lymph, phosphatidylcholine vs triglyceride infusion ([4]; rat, in vivo): significantly reduced | absorption into the lymphatic system from an emulsion ([1]; rat, in vivo): poorly absorbed from the emulsion | intestinal absorption of vitamin E with MCT [7]: enhancing effect of MCT on intestinal absorption of vitamin E
